Assay results as given in US20250090514A1, “METHOD OF TREATING CANCER” (Laekna Limited, priority 2019, published 2025).
Where two headings read alike, the source gives them in different places.

Assays:
aldosterone synthesis = assay: Example C: aldosterone level and hyperaldosteronism; assay type: in vivo, human
From the text: Hyperaldosteronism is a disorder with several serious clinical symptoms including hypertension, hypokalemia, fatigue, headache, muscle weakness and numbness.

[1] = test system: metastatic castration-resistant prostate cancer (mCRPC) patients; settings: cited from earlier work
[2] = Body weight and tolerability in the Mini-PDX study; assay type: in vivo
Procedure: During the study, the care and use of animals were conducted in accordance with the regulations of the Association for Assessment and Accreditation of Laboratory Animal Care (AAALAC). After Mini-PDX device inoculation, the animals were checked daily for morbidity and mortality. At the time of routine monitoring, the animals were checked for any effects of treatments on normal behavior such as mobility, visual estimation of food and water consumption, body weight gain/loss, eye/hair matting and any other abnormal effect.
The body weight of mice was measured every day, and relative change of bodyweight was calculated for each mouse according to the following formula: RCBW(%)=(BWi−BW0)/BW0×100, BWi is the body weight after treatment on a given day, BW0 is the bodyweight on the first day of treatment.

Cc1ccncc1N1CCN(c2ccnc(Cl)c2)C1=O [CFG920, 1-(2-chloro-pyridin-4-yl)-3-(4-methyl-pyridin-3-yl)-imidazolidin-2-one]
aldosterone level vs baseline (aldosterone synthesis; baseline to Day 1 of Cycle 3, except Day 1 of Cycle 2 (similar to baseline), combination therapy): lower than the baseline level | clinical symptoms of hyperaldosteronism (aldosterone synthesis; during treatment with the combination therapy): did not cause any clinical symptoms of hyperaldosteronism | unconfirmed rate of ≥50% PSA decline from baseline ([1]; chemotherapy-naive mCRPC patients (32 of 124)): 26% | unconfirmed rate of ≥50% PSA decline from baseline ([1]; mCRPC patients with previous chemotherapy (16 of 57)): 28%

Cn1ncc(Cl)c1-c1cc(C(=O)N[C@H](CN)Cc2cccc(F)c2)sc1Cl [afuresertib, N-{(1S)-2-amino-1-[(3-fluorophenyl)methyl]ethyl}-5-chloro-4-(4-chloro-1-methyl-1H-pyrazol-5-yl)-2-thiophenecarboxamide]
tolerability in the animals ([2]; afuresertib 75 mg/kg, CFG920 300 mg/kg): tolerated well | Average RCBW (%)/Day 6 ([2]; relative change of body weight from day 0, afuresertib 75 mg/kg QD, CFG920 300 mg/kg BID): −8.73%
